According to article PMC9369442, “Synthetic Peucedanocoumarin IV Prevents α-Synuclein Neurotoxicity in an Animal Model of Parkinson’s Disease” (International Journal of Molecular Sciences, 2022):

Test system: α-synuclein PFF-treated mice cortical neurons
Assay: PFF-induced α-synucleinopathy in primary cortical neurons, immunofluorescence
Assay type: cell-based, mouse
Settings: for endogenous α-synuclein expression: PBS- or PFF-treated mouse cortical neurons
Procedure: Figure 2 PCiv prevents α-synuclein aggregation in vitro and in cultured neurons with PFF treatment. (A) Representative Western blots showing the degree of recombinant α-synuclein (αSyn) aggregation in a test tube in the presence or absence of PCiv (100 μM) at the indicated incubation duration (phosphate-buffered saline [PBS], 37 °C for 3 or 5 days). Aggregation of α-synuclein was determined using α-synuclein antibody. (B) Quantification of the relative amount of α-synuclein aggregate in high molecular weight sizes in panel A (n = 3 per group). (C) Representative immunofluorescence of MAP2 and Lewy-like inclusion marker pS129-αSyn in mice cortical neurons treated with α-synuclein preformed fibril (PFF) (1 μg, for 14 days). To evaluate the protective effects of PCiv as compared with PCiii, these compounds were treated (1 μM every 2 days for 14 days) following the PFF treatment. (D) Quantification of pS129-αSyn immunofluorescence signal intensities in MAP2-positive cortical neurons in each experimental group (n = 15 cells from three separate experiments). (E) Cell viability assessment in the indicated experimental groups was monitored by CCK-8 assay (n = 3 per group). The data are expressed as means ± SEMs. * p < 0.05, ** p < 0.01, *** p < 0.001, and **** p < 0.0001, ANOVA test followed by Tukey’s post hoc analysis.
CD1 mice were purchased from Orient Co. for use in the mouse primary neuron culture. E14 embryos from CD1 mice were dissected for primary cortical neurons in Neurobasal A medium (Gibco, Thermo Fisher Scientific Inc., Waltham, MA, USA) supplemented with B-27 (Gibco, Thermo Fisher Scientific Inc., Waltham, MA, USA) and 1 mM L-glutamine. Next, the primary cortical neurons were maintained in a poly L-lysine-coated tissue culture plate, and the medium was changed every 2–3 days. After 7 days, PFF was added to the cortical neurons and incubated for 14 days to observe the p-S129-α-synuclein signal which was used for immunofluorescence analysis. […] The optical value was read at 450 nm using a multi-detection microplate reader (Synergy, BioTek Instruments Inc., Winooski, VT, USA). […]
(A) Representative Western blots showing the degree of recombinant α-synuclein (αSyn) aggregation in a test tube in the presence or absence of t-Khellatone, PCiii, and PCiv (100 μM) at 0 and 5 days of incubation (phosphate-buffered saline [PBS], 37 °C for 5 days). Aggregation of α-synuclein was determined using α- synuclein antibody. (B) Quantification of relative amount of α-synuclein aggregate in high molecular weight sizes in panel A (n = 3 per group). […] (D) Quantification of filament conformation-αSyn (Filament) immunofluorescence signal intensities in MAP2 -positive cortical neurons in each experimental group (n = 15 cells from three separate experiments). […]

[1] = 1 μM every 2 days for 14 days, PFF 1 μg

Row | Structure (SMILES) | endogenous α-synuclein expression | PFF-induced elevation of filament conformation-αSyn signal [1] | PFF-induced elevation of pS129-αSyn signal [1]
1 | C/C=C(\C)C(=O)O[C@@H]1c2c(ccc3ccc(=O)oc23)OC(C)(C)[C@H]1OC(C)=O (relative stereo) [PCiii, peucedanocoumarin III] | not affected |  | 
2 | C/C=C(\C)C(=O)O[C@H]1[C@H](OC(C)=O)c2c(ccc3ccc(=O)oc23)OC1(C)C (relative stereo) [PCiv, trans-4′-acetyl-3′-tigloylkhellactone] | not affected | mitigated | mitigated
